# Source: publication PMC10377586 (Biomolecules, 2023)
# Experiments:
# human D2L receptor = human D2L receptor (Homo sapiens, UniProt P14416); test: Radioligand binding [3H]-raclopride, HEK293 membranes; settings: HEK293 cells, human D2; read-out: hD2 [3H]-Raclopride Ki ± SEM
# Procedure: (§1) Rat brain cortical membranes were used as source of native rat D1 receptor protein, and human D2 receptor was recombinantly expressed in HEK293 cells.
# HEK293 cells with stable expression of human D2L receptor were maintained at 37 °C in a humidified atmosphere with 5% CO2 and grown in Dulbecco’s Modifier Eagle Medium containing 10% dialyzed fetal bovine serum and 500 µg/mL G418 sulfate. For membrane preparation, cells were subcultured in 150 cm^2 flasks, grown to 90% confluence, washed twice with prewarmed to 37 °C phosphate buffered saline (PBS), and pelleted by centrifugation (200× g) in PBS containing 0.1 mM EDTA and 1 mM dithiothreitol. Prior to membrane preparation, pellets were stored at −80 °C.
# Cell pellets were thawed and homogenized in 10 volumes of assay buffer using an Ultra Turrax tissue homogenizer and centrifuged twice at 35,000× g for 15 min at 4 °C. The incubation buffer consisted of 50 mM Tris-HCl, 1 mM EDTA, 4 mM MgCl2, 120 mM NaCl, 5 mM KCl, 1.5 mM CaCl2, and 0.1% ascorbate. Assay was incubated in a total volume of 200 µL in 96-well microtiter plate for 1 h at 37 °C. The process of equilibration was terminated by rapid filtration through Unifilter plate with a 96-well cell harvester and radioactivity retained on the filter was quantified on a Microbeta plate reader (PerkinElmer). For competition studies, the assay samples contained radioligand 2.5 nM [^3H]-raclopride (PerkinElmer). Non-specific binding was defined with 10 µM of haloperidol. Each compound was tested in triplicate at 7 concentrations (10^−10–10^−4 M). The inhibition constants (Ki) were calculated from the Cheng–Prusoff equation [66]. Results were expressed as means of at least two separate experiments.
# rat A1 (rA1) ARs = target: T1, rat A1 (rA1) ARs (Rattus norvegicus, UniProt P25099); test: Radioligand binding [3H]CCPA, rat brain cortical membranes; settings: read-out: rA1 [3H]CCPA Ki ± SEM
# T1 construct: using rat brain cortical membrane preparations for A1; tissue Pel Freez; host or cells: rat brain cortex membranes
# T1 sequence (P25099 1-326): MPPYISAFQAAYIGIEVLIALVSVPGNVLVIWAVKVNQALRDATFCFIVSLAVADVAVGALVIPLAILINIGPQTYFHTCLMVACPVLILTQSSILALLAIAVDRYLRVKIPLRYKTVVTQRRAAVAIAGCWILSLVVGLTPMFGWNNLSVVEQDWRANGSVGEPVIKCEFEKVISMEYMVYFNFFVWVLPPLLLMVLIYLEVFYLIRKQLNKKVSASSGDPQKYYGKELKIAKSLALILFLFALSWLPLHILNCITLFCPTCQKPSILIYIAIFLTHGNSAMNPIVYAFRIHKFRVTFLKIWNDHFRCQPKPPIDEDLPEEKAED
# Procedure: The final compounds were tested in radioligand binding assays to evaluate their affinity for all four ARs subtypes (see Table 2). Rat brain cortical membrane preparations were used as a source of rat A1 (rA1) ARs, and rat brain striatal membrane preparations served as a source of rat A2A (rA2A) ARs. For A2B- and A3AR assays, membrane preparations of Chinese hamster ovary (CHO) cells recombinantly expressing either human A2B (hA2B) or human A3 (hA3) ARs were employed.
# Adenosine receptor radioligand binding assays were performed as previously described using rat brain cortical membrane preparations for A1 and rat brain striatal membrane preparations for A2A AR assays. Frozen rat brains (unstripped) were obtained from Pel Freez, Rogers, AR, USA. For assays at human AR subtypes, cell membranes of CHO cells recombinantly expressing the respective receptor were used. The following compounds were employed as radioligands: A1: [^3H]2-chloro-N^6-cyclopentyladenosine ([^3H]CCPA); A2A: [^3H]3-(3-hydroxypropyl)-7-methyl-8-(m-methoxystyryl)-1-propargylxanthine ([^3H]MSX-2); A2B: [^3H]8-(4-(4-(4-chlorophenyl)piperazine-1-sulfonyl)phenyl)-1-propylxanthine ([^3H]PSB-603); A3: [^3H]phenyl-8-ethyl-4-methyl-(8R)-4,5,7,8-tetrahydro-1H-imidazo[2,1-i]purine-5-one ([^3H]PSB-11). Initially, a single high concentration of compound was tested (1 µM). For potent compounds, full concentration–inhibition curves were determined using six to ten different concentrations of test compound spanning three orders of magnitude. At least three independent experiments were performed. Data were analyzed using GraphPad PRISM program version 4.0 or higher (Graph Pad, San Diego, CA, USA).
# rat D1 receptor = target: T2, rat D1 receptor (Rattus norvegicus, UniProt P18901); test: Radioligand binding [3H]SCH23390, rat brain tissue; settings: for Ki: native rat D1 receptor, read-out: rD1 [3H]SCH23390 Ki ± SEM; for inhibition at 1 µM: read-out: rD1 [3H]SCH23390 % inhibition ± SEM at 1 µM
# T2 construct: source of native rat D1 receptor protein; from tissue; host or cells: rat striatum (methods) / rat brain cortical membranes
# Procedure: as §1
# Rat striatum tissue was thawed in 50 volumes of ice-cold 50 mM potassium phosphate buffer, pH 7.4, homogenized and centrifuged at 20,000× g for 20 min. The resulting pellet was resuspended in the same quantity of the buffer and centrifuged again for 20 min. Binding experiments were conducted in 96-well microplates in a total volume of 250 μL of appropriate buffers. Reaction mix included 50 μL solution of test compound, 50 μL of radioligand, and 150 μL of tissue suspension (3 mg/mL). [^3H]SCH23390 (spec. act. 81.9 Ci/mmol, PerkinElmer, NET 930) was used for labeling the D1-receptor. For measuring unspecific binding, cis(Z)flupentixol—5 μM was applied. Samples were incubated at 30 °C for 60 min. The incubation was terminated by rapid filtration over glass fiber filters GF/B using a Harvester (PerkinElmer, USA). The radioactivity was measured in MicroBeta TriLux 1450—liquid scintillation counter (PerkinElmer). Each compound was tested in a screening assay in duplicate at final concentrations of 1 µM. Results were expressed as a percent of inhibition of specific binding.
# human PDE4B1 = target: T3, human PDE4B1 (Homo sapiens, UniProt Q07343); test: PDElight HTS cAMP phosphodiesterase assay, PDE4B1; format: biochemical; settings: read-out: PDE 4B1 IC50 ± SEM
# T3 construct: purchased BPS Biosciences
# Procedure: Further biological evaluation of the presented compound library was performed determining inhibitory potencies against selected human PDE isoforms, namely, PDE4 and PDE10 (for results see Table 3).
# Tested and reference compounds were dissolved in dimethyl sulfoxide (DMSO) at a concentration of 10 mM and further diluted in assay buffer (10 mM Tris-HCl, 10 mM magnesium chloride and 0.05% Tween-20; pH 7.4). Inhibition of human PDE10A and 4B1 was measured using PDElight HTS cAMP phosphodiesterase assay kit (Lonza, Basel, Switzerland) according to manufacturer’s recommendations. Then, 10 ng of PDE10A and 5 ng of PDE4B1 (BPS Biosciences, San Diego, CA, USA) in appropriate buffer was incubated with reference and tested compound for 20 min. […] Then PDELight AMP Detection Reagent was added and incubated 10 min. All reactions were carried out at 37 °C in 96 white-walled, half-area-well plates (PerkinElmer). Luminescence was measured in a multifunction plate reader (POLARstar Omega, BMG Labtech, Ortenberg, Germany). The percentage of inhibition and IC50s were computed using GraphPad Prism Version 6.0 software.
# T3 sequence (Q07343 whole entry): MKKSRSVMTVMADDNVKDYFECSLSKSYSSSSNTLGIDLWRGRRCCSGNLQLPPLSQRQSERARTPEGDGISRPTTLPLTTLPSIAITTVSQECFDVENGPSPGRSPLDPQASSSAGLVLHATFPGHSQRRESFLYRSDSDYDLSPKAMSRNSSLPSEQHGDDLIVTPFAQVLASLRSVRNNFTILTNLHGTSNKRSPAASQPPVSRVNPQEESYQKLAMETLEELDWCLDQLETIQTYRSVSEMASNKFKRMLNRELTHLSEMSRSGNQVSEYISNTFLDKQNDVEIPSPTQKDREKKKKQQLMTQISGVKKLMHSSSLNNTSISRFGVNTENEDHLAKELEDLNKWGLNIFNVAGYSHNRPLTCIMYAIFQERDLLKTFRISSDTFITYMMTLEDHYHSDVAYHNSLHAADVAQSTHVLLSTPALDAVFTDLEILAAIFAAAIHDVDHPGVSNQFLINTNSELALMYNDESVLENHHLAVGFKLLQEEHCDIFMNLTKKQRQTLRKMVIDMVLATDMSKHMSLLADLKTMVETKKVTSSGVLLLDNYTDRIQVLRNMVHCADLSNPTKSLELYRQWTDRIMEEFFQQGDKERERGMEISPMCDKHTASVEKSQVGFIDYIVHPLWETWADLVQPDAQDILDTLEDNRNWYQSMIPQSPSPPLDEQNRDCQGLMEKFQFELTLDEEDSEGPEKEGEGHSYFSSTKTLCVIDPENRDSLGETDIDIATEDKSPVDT
# T2 sequence (P18901 whole entry): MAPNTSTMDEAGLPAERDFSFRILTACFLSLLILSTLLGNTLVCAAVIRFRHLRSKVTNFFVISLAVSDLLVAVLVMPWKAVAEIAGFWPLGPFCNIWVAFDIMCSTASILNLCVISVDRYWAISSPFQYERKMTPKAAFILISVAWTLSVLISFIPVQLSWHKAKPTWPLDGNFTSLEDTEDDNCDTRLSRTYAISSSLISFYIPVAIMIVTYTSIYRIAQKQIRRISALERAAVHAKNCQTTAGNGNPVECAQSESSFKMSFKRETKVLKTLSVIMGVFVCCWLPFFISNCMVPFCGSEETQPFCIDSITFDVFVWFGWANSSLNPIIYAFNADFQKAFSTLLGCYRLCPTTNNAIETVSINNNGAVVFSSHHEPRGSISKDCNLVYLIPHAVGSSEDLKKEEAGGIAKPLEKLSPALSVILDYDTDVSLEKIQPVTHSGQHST
# Sequence of human D2L receptor (P14416 whole entry): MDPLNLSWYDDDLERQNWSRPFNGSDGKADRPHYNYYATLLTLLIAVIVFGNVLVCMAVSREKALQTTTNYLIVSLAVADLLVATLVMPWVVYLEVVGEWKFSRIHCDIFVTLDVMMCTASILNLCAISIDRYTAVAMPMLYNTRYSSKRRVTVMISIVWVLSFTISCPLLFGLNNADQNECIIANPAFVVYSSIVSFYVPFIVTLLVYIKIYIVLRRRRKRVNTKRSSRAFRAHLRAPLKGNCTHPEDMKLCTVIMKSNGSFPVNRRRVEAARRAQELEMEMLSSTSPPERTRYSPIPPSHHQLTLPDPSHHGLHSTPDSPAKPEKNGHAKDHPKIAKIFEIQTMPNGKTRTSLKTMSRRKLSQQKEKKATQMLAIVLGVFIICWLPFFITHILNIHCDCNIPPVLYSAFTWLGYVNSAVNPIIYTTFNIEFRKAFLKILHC
SMILES,Ki (human D2L receptor) [µM],Ki (rat A1 (rA1) ARs) [µM],Ki (rat D1 receptor) [µM],inhibition at 1 µM (rat D1 receptor) [%],IC50 (human PDE4B1) [µM]
"CCCn1c(NCCc2ccc(O)c(O)c2)nc2c1c(=O)n(C)c(=O)n2C [Compound 11c, 8-((3,4-Dihydroxyphenethyl)amino)-1,3-dimethyl-7-propyl-3,7-dihydro-1H-purine-2,6-dione]",9.37 ± 1.15,0.73 ± 0.093,> 1,9,3.32 ± 0.8
"CC(C)n1c(NCCc2ccc(O)c(O)c2)nc2c1c(=O)n(C)c(=O)n2C [Compound 11d, 8-((3,4-Dihydroxyphenethyl)amino)-7-isopropyl-1,3-dimethyl-3,7-dihydro-1H-purine-2,6-dione]",17.7 ± 3.99,0.857 ± 0.043,> 1,15,2.44 ± 0.8
"Cn1c(=O)c2c(nc(NCCc3ccc(O)c(O)c3)n2CCc2ccccc2)n(C)c1=O [Compound 11k, 8-((3,4-Dihydroxyphenethyl)amino)-1,3-dimethyl-7-phenethyl-3,7-dihydro-1H-purine-2,6-dione]",9.95 ± 1.95,≥ 10,> 1,6,4.4 ± 0.54
"CCC(C)n1c(NCCc2ccc(O)c(O)c2)nc2c1c(=O)n(C)c(=O)n2C (centres unmarked) [Compound 11g, 7-(Sec-butyl)-8-((3,4-dihydroxyphenethyl)amino)-1,3-dimethyl-3,7-dihydro-1H-purine-2,6-dione]",39.2 ± 8.43,1.17 ± 0.38,> 1,11,4.41 ± 0.23
